These results are taken from patent US10258613B2, “Compositions for treating retinal degeneration and methods of production and use thereof” (The Board of Regents of the University of Oklahoma, priority 2014, dated 2019).

One series deals with cones in Rpe65−/− mice. As to the kind of experiment: Cone density after intravitreal injection of TR antagonists. In kind it is in vivo, mouse. The following applies: for cone death, in words: intravitreal delivery; for cone density increase: intravitreal injection at P5 (1.0 μl of 5 mM NH-3 or 10 mM 1-850), collected P24; for cone protection, in words: intravitreal injection at P5, P24, PNA staining. How it is done: The cornea and lens were then removed, and the eyes were fixed in 4% PFA in PBS (vol/vol) at room temperature for another 4-6 hours. […] Paraffin sections (5 μm thickness) passing vertically through the retina (along the vertical meridian passing through the optic nerve head) were prepared using a Leica microtome.
Briefly, retinal whole mounts or sections were blocked in Hank's balanced salt solution containing 5% bovine serum albumin (BSA) and 0.5% Triton-X 100 for 1 hour at room temperature. Primary antibody incubation (anti-M-opsin, 1:500; anti-S-opsin, 1:500; anti-CAR, 1:500; and anti-GNAT2, 1:500) was performed at room temperature for 1 hour. […] PNA immunohistochemistry was performed using biotinylated PNA (1:50) and streptavidin-FITC (1:200). […] For retinal whole mounts, images were taken using a 40× objective on an Olympus microscope, approximately 1.0 mm from the optic nerve in the center of each quadrant (FIG. 1). […] Cone density on retinal cross section was evaluated by counting the number of cones present in the dorsal and ventral areas. The averages of the counts were analyzed and graphed using GraphPad Prism software (GraphPad Software, San Diego, Calif.).
(§1) The cone precursor Weri RB-1 cell line was used to determine the antagonistic activity of the TR antagonists, NH-3 and 1-850. Expression levels of M-opsin and S-opsin in Weri cells following T3 treatment in the presence and absence of TR antagonists were analyzed by quantitative RT-PCR. […] NH-3, 1-850, or vehicle was delivered to the eye by intravitreal injection at postnatal day 5 (P5), and retinas and eyes were collected on P24. Cone survival was evaluated by examining cone density on retinal whole mounts and retinal sections by immunohistochemical approaches.

The test system of another series is Weri RB-1 cell line. As to the kind of experiment: M-opsin and S-opsin expression (quantitative RT-PCR) after T3 with or without TR antagonists. In kind it is cell-based. The note with it: Weri cells; for inhibition of T3-induced M-opsin expression / inhibition of the effects of T3 treatment on M-opsin and S-opsin expression: dose-dependent pattern. How it is done: as §1

A short description of series [1]: Serum T3 levels by mouse/rat T3 ELISA in anti-thyroid- or T3-treated mice. Format: in vivo. The following applies: for increase of serum T3 levels compared with untreated controls: around 24 hours after last injection; for concentration at 24 h: mouse, serum, sc, 0.1 μg/g body weight, T3 0.1 μg/g s.c. once each day 30 days from P1, around 24 hours after last injection. As for the experimental part:
(§2) For anti-thyroid treatment, mother Rpe65^−/− and cpfl1 mice were treated with methimazole (MMI) (Sigma-Aldrich, St. Louis, Mo., 0.05% wt/vol) and sodium perchlorate monohydrate (PM) (Sigma-Aldrich, 1.0% wt/vol) in drinking water, beginning on the day they delivered pups and the treatment (for both mother and pups) continued for 30 days. In a separate experiment, post-weaning cpfl1 mice received MMI and PM treatment for 30 days, beginning on P25. For T3 treatment, Cngb3^−/− and Gucy2e^−/− mice received T3 (Sigma-Aldrich, 0.1 μg/g body weight, subcutaneous injection once each day) or vehicle (saline) for 30 days, beginning on P1. At the end of the treatments, blood samples were collected for measurements of serum T3 levels, and eyes and retinas were collected for evaluating cone density and cone specific protein/mRNA expression. For T3-treated mice, blood samples were collected around 24 hours after the last injection.
Serum triiodothyronine (T3) levels were analyzed using a mouse/rat T3 ELISA kit (Calbiotech Inc., Spring Valley, Calif.) with a total T3 detection limit at 0.25 ng/ml. Briefly, 25 μl of serum samples and standards with different T3 concentrations were added into the assigned wells, the assays were performed by following the manufacturer's instructions, and the absorbance of each well was read at 450 nm (SPECTRAMAX® 190 Microplate Spectrophotometer, Molecular Devices LLC, Sunnyvale, Calif.). The standard curve was generated by using a three-parameter exponential non-linear regression in SIGMAPLOT® software (Systat Software, Inc., San Jose, Calif.), and the sample T3 concentration was then calculated according to the three-parameter exponential equation.

The subject of another series is cones. The note with it: mice; effect reversed by deletion of TRβ2 gene; cited from earlier work.
Another series relates to cones in Gucy2e−/− mice. In words: Cone density by immunofluorescence labeling after T3 treatment. Format: in vivo, mouse. As for the experimental part: as §2
(§3) Mouse retinal whole mounts or cross sections were prepared for immunohistochemical analysis as described previously (Ding et al., 2009; and Xu et al., 2011). […] The cornea and lens were then removed, and the eyes were fixed in 4% PFA in PBS (vol/vol) at room temperature for another 4-6 hours. […] Paraffin sections (5 μm thickness) passing vertically through the retina (along the vertical meridian passing through the optic nerve head) were prepared using a Leica microtome.
(§4) Immunohistochemical labeling of cones using antibodies against peanut agglutinin (PNA), cone opsin, cone arrestin (CAR), and guanine nucleotide-binding protein G(t) subunit alpha-2 (GNAT2) was performed as described previously (Ding et al., 2009). Briefly, retinal whole mounts or sections were blocked in Hank's balanced salt solution containing 5% bovine serum albumin (BSA) and 0.5% Triton-X 100 for 1 hour at room temperature. Primary antibody incubation (anti-M-opsin, 1:500; anti-S-opsin, 1:500; anti-CAR, 1:500; and anti-GNAT2, 1:500) was performed at room temperature for 1 hour. Following ALEXA FLUOR®-488 or -568 (Molecular Probes, Inc., Eugene, Oreg.) or FITC-conjugated secondary antibody incubation and rinses, slides were mounted and cover-slipped. PNA immunohistochemistry was performed using biotinylated PNA (1:50) and streptavidin-FITC (1:200). Fluorescent signals were imaged using an Olympus AX70 fluorescence microscope (Olympus Corp., Center Valley, Pa.) with QCapture imaging software (QImaging Corp., Surrey, BC, Canada) or an Olympus IX81-FV500 confocal laser scanning microscope (Olympus, Melville, N.Y.) (using excitation wavelengths of 543 nm for ALEXA FLUOR®-568 and 488 nm for FITC) and FLUOVIEW® imaging software (Olympus, Melville, N.Y.). Evaluation of cone density on retinal whole mounts and retinal cross-sections was performed as described previously (Xu et al., 2011; and Komeima et al., 2006). For retinal whole mounts, images were taken using a 40× objective on an Olympus microscope, approximately 1.0 mm from the optic nerve in the center of each quadrant (FIG. 1). Image scale was calibrated and cones were counted in four regions, each with dimensions of 317 μm×317 μm, using ImageJ software (ImageJ software website from National Institutes of Health, Bethesda, Md.). Cone density on retinal cross section was evaluated by counting the number of cones present in the dorsal and ventral areas. The averages of the counts were analyzed and graphed using GraphPad Prism software (GraphPad Software, San Diego, Calif.).

Another series has as its system cones in Cngb3−/− mice. Described as above. Format: in vivo, mouse. How it is done:
as §2, §3, §4

For series [2], the system named is rod photoreceptors in Gucy2e−/− mice. In words: Retinal morphometric analysis (ONL nuclei count, ONL thickness) after T3 treatment. In kind it is in vivo, mouse. How it is done: as §2, §3
(§5) Retina cross sections labeled with DAPI (Vector Laboratory Inc., Burlingame, Calif.) were used for morphometric analysis to evaluate outer nuclear layer (ONL) integrity/rod survival as described previously (Xu et al., 2012). In each hemisphere, the number of nuclei in the ONL and the thickness of the ONL were measured at 0.24 mm intervals in nine defined areas, starting at the optic nerve head and extending along the vertical meridian toward the dorsal and ventral ora serrata. The mean number of nuclei and ONL thickness at the dorsal and ventral locations was then calculated. In each experimental group, two-three sections from each of the retinas of three-four mice were measured. The averages of the measurements in each location were plotted, and the measurements in each hemisphere were analyzed and graphed using GraphPad Prism software (GraphPad Software, San Diego, Calif.).

For series [3], the system named is rod photoreceptors in Cngb3−/− mice. Described as above. Format: in vivo, mouse. As for the experimental part: as §2, §3, §5
Where [4] appears, read: T3 0.1 μg/g s.c. daily 30 days from P1.

Entries after “also recorded” stand apart in the source; their conditions may differ.

`O=C(C=C1CCN(c2ccc([N+](=O)[O-])cc2)CC1)NNC(=O)Nc1cccc(C(F)(F)F)c1` [1-850]: in the series with cones in Rpe65−/− mice, the “cone death, in words” value is “reduced cone death”; the cone density increase result is recorded as “about 35%”; the “cone protection, in words” value is on record as “protected cones”. Besides, in the series with Weri RB-1 cell line, the “inhibition of T3-induced M-opsin expression” value is reported as “inhibited T3-induced M-opsin expression”; the “inhibition of the effects of T3 treatment on M-opsin and S-opsin expression” value is reported as “inhibited”.

As for `Cc1cc(OCC(=O)O)cc(C)c1Cc1cc(C#Cc2ccc([N+](=O)[O-])cc2)c(O)c(C(C)C)c1` [NH-3], in the series on cones in Rpe65−/− mice, the “cone death, in words” value is “reduced cone death”; the cone density increase result is reported as “about 35%”; the “cone protection, in words” value is given as “protected cones”. In the series on Weri RB-1 cell line, the “inhibition of T3-induced M-opsin expression” value is listed as “inhibited T3-induced M-opsin expression”; the “inhibition of the effects of T3 treatment on M-opsin and S-opsin expression” value is reported as “inhibited”.

As for `N[C@@H](Cc1cc(I)c(Oc2ccc(O)c(I)c2)c(I)c1)C(=O)O` [T3, Triiodothyronine], in series [1] (Cngb3−/− mice), the “increase of serum T3 levels compared with untreated controls” value was “about 8 fold” and the concentration at 24 h was found to be 3.85 ± 0.55 nM. Also, in series [1] (Gucy2e−/− mice), the “increase of serum T3 levels compared with untreated controls” value is recorded as “about 6 fold” and the concentration at 24 h came to 3.43 ± 0.48 nM. Besides, the cone viability entry in the series on cones is “cause cone death”. Besides, in the series with Weri RB-1 cell line (T3 treatment), the M-opsin expression entry was “increased M-opsin expression” and the S-opsin expression result is given as “decreased S-opsin expression”. In addition, in the series with cones in Gucy2e−/− mice (setting [4]), the “reduction of density of cones labeled by CAR vs untreated controls” value is on record as “about 30%”, the “reduction of density of cones labeled by PNA vs untreated controls” value is recorded as “about 30%” and the “reduction of density of cones labeled by cone opsin vs untreated controls” value is recorded as “about 30%”. Further, the “cone degeneration / cone density, in words” value in the series on cones in Gucy2e−/− mice (T3 30 days from P1) is “significantly increased; also recorded: significantly diminished cone density; also recorded: deteriorated cones”. For the same compound, the cone density decrease result in the series on cones in Gucy2e−/− mice (summary statement) was “about 40%”. Besides, in the series on cones in Cngb3−/− mice (setting [4]), the “reduction of CAR-labeled cones vs untreated” value was “about 40%” and the “reduction of PNA-labeled cones vs untreated” value is given as “about 30%”. In addition, in the series on cones in Cngb3−/− mice (T3 30 days from P1), the “M-opsin labeled-cones vs untreated controls” value is “greatly reduced”; the “S-opsin labeled-cones vs untreated controls” value is reported as “greatly reduced”; the “cone degeneration / cone density, in words” value is “significantly increased; also recorded: significantly reduced; also recorded: deteriorated cones”. In addition, the cone density decrease result in the series on cones in Cngb3−/− mice (summary statement) is on record as “about 40%”. Besides, in series [2] (T3 30 days), the “reduction of average number of nuclei in the ONL vs untreated controls” value is reported as “about 30%”. Moreover, the “rod photoreceptor viability, in words” value in series [2] (T3 30 days from P1) was “causes rod degeneration”. In series [3] (T3 30 days), the “reduction of average number of nuclei in the ONL vs untreated controls” value is recorded as “about 30%”. Besides, in series [3] (T3 30 days from P1), the “rod photoreceptor viability, in words” value is “causes rod degeneration”.
